According to patent US20030089472A1, “Laccase activity enhancers for pulp bleaching” (priority 2001, published 2003):

System: laccase (NS51003, Novozymes A/S, Denmark)
Assay: Delignification of a softwood Kraft pulp using a laccase-mediator system (change in Kappa number, TAPPI T236 cm-85)
Format: biochemical
Conditions: for Kappa # (Mediator): pH 5.5
Procedure: Delignification of a Softwood Kraft Pulp Using a Laccase-Mediator System in the Presence of a Mediator
In the following example, a softwood Kraft pulp was delignified using a laccase-mediator system. The Kraft process is well known to those skilled in the art and is described, for example, by Swen A. Rydholm in “Pulping Process”, Interscience Publishers, New York, N.Y. (1965), p. 576.
A softwood Kraft pulp, Kappa number 31.0, was treated with a laccase (NS51003, Novozymes A/S, Denmark) under the following conditions:
The dried pulp was added to 80 ml of 50 mM phosphate, pH 5.5, and disintegrated in a blender. The pulp was then transferred to a 500 ml conical flask, and the blender was washed with 20 ml of the same buffer. The washed buffer and the pulp were combined. The mediator was added at 1-4% (w/w, based on the dry pulp) (Dosage) followed by the addition of the laccase. The pH of the pulp mixture was adjusted to 5.5 if needed. The flask was covered with an aluminum foil with holes punched through and incubated at 50° C. for 16 hrs on a rotary shaker at 200 rpm.
After the enzymatic treatment, the pulp mixture was filtered through a Buchner funnel and the pulp was washed with water. The pulp from the control experiment was treated at the same pH and temperature as described above in the absence of mediators.
The washed pulp was then treated with an alkaline solution under the following conditions:
The filtered pulp was repulped in the alkaline solution and incubated at 70° C. for 3 hrs. The pH of the pulp mixture should be between 11.7-12.00 during the entire treatment. After the treatment, the pulp mixture was filtered through a Buchner funnel, and the pulp was washed with water extensively, and then dried in a hood overnight.
The delignification of the pulp was measured as the change in Kappa number according to TAPPI method T236 cm−85. Briefly, a known mass of paper pulp (containing lignin) was reacted with an excess of potassium permanganate in acid solution for a specified period of time to oxidize the lignin. After the reaction, the residual permanganate was determined by titration. The Kappa number was defined as the volume (ml) of 0.1N potassium permanganate consumed by 1 g of moisture-free pulp in 0.5N sulfuric acid after a ten minute reaction time at 25° C. under conditions such that one-half of the permanganate remained unreacted. A linear relationship with the lignin content of the pulp and the measurement of the Kappa number had already been done on samples as low as 300 mg of pulp.

SMILES	Δ Kappa #	Kappa # (Mediator)
C(=NCc1ccccc1)c1ccccc1 [N-Benzylidene-benzylamine]	−0.3	28.3
Oc1ccccc1 [Phenol]	−1.1	25.0
CN(C)C(=S)[S-].O.[Na+] [Sodium dimethyldithio carbonate hydrate]	−0.7	28.6
Cc1ccc2nc(-c3ccc(N=NNc4ccc(-c5nc6ccc(C)c(S(=O)(=O)[O-])c6s5)cc4)cc3)sc2c1S(=O)(=O)[O-].[Na+].[Na+] [Thiazol Yellow G]	−3.0	21.9
